Source: US20100113406A1, “USE OF GLUCOCORTICOIDS FOR TREATMENT OF CONGESTIVE HEART FAILURE” (priority 2007, published 2010)
Entries after “also recorded” stand apart in the source; their conditions may differ.

What was measured:
[1] = Pharmacokinetic study in normal Wistar rats (IPC vs IV infusion, corticosterone levels by HPLC); assay type: in vivo, Wistar rat; settings: local (intrapericardial) administration versus systemic (IV) administration of the same amount of drug; 4 weeks infusion; FIG. 2
Procedure: Normal Wistar rats were used for this Example. Animals were housed at the animal facilities of the University of Maastricht with a 12-hour light/dark cycle and had free access to standard rat chow and tap-water. Experiments were performed according to institutional guidelines and conformed to the Guide for the Care and Use of Laboratory Animals published by the US National Institutes of Health (NIH Publication No. 85-23, revised 1996).
The rats underwent a surgical procedure to install pericardial and intravenous catheters and minipumps. Construction of the pericardial catheters and the procedure to install the catheter into the pericardial space were conducted as described by Hermans, which has been discussed above.
Briefly, the pericardial catheters consisted of silicone tubing (internal diameter: 0.51 mm; external diameter 0.94 mm, Degania Silicone, Degania Bet, Israel), which, by assembling its endings with a polyolefin shrinking sleeve (Farnell Compounds, Maarssen, the Netherlands), was shaped as a loop (length appr. 2 cm, width appr. 1 cm). Silicone glue was applied in the middle of the loop, to create two separate chambers (one used for fluid injection, the second closed, i.e. connected to a closed ending). The fluid infusion chamber was provided with holes by use of a 25-gauge perforator. […]

[2] = test system: spontaneous hypertensive heart failure (SHHF) rats; test: Left ventricular pressures, contractility, relaxation, arterial pressure and heart rate in SHHF rat model of CHF; assay type: in vivo
Procedure: (§1) Forty to forty-two week old male lean spontaneous hypertensive heart failure (SHHF) rats (originally obtained from Charles River, Boston, USA) were used. Animals were housed at the animal facilities of the University of Maastricht with a 12-hour light/dark cycle and had free access to standard rat chow and tap-water. Experiments were performed according to institutional guidelines and conformed to the Guide for the Care and Use of Laboratory Animals published by the US National Institutes of Health (NIH Publication No. 85-23, revised 1996).
The rats underwent a surgical procedure to install pericardial and intravenous catheters and minipumps according to the procedure of Example 1.
Animals were randomly assigned to treatment groups (n=9 per group). Total treatment time was 4 weeks for all animals. The groups were as follows: • (1) corticosterone high dose IPC (60 micrograms/day) • (2) corticosterone low dose IPC (6 micrograms/day) • (3) corticosterone high dose IV (60 micrograms/day) • (4) corticosterone low dose IV (6 micrograms/day) • (5) vehicle
Where IPC—intrapericardial dosing, and IV=intravenous dosing.
During treatment, Group 5 (vehicle) rats were continuously infused with vehicle (40% polyethylene glycol in water; 60 μl/day) via both catheters. Experimental groups obtained continuous infusions as follows: • Group (1)—a high dose (60 ug/day) of corticosterone hemisuccinate intrapericardially and vehicle intravenously; • Group (2)—a low dose (6 ug/day) of corticosterone hemisuccinate intrapericardially and vehicle intravenously; • Group (3)—a high dose (60 ug/day) of corticosterone hemisuccinate intravenously and vehicle intrapericardially; and • Group (4)—a low dose (6 ug/day) of corticosterone hemisuccinate intravenously and vehicle intrapericardially. • Corticosterone hemisuccinate was purchased from Sigma (St Louis, Mo.)
Left ventricular pressures, contractility and relaxation were evaluated at the end of the study as described in B J Janssen et al., “Effects of anesthetics on systemic hemodynamics in mice.” Am J Physiol Heart Circ Physiol 287:H1618-1624 (2004). For this purpose rats were anaesthetized with pentobarbital (50 mg/kg i.p., Sigma). A high-fidelity catheter tip micromanometer (Mikro-tip 1.4F; SPR-671, Millar Instruments, Houston, Tex., USA) was inserted into the left ventricular cavity through the right carotid artery. Before the tip was inserted into the left ventricle, mean arterial pressures and heart rates were briefly recorded in the carotid artery. Left ventricular pressure was measured and sampled at a rate of 2 kHz under an I.V. ramp infusion of dobutamine up to 5 ng/gBW/min (Sigma) using a microinjection pump (model 200 Series, KD Scientific, Boston, Mass., USA). Maximal positive (+dp/dt/p) and negative (−dp/dt/p) pressure development were determined. At the end of the experiment blood and organs were harvested, weighed and rapidly processed and frozen for future analyses.

[3] = test system: spontaneous hypertensive heart failure (SHHF) rats; test: Left ventricular collagen by Picro Sirius Red staining in SHHF rats; assay type: in vivo, rat; settings: 6 or 60 micrograms/day IPC or IV, 4 weeks, FIG. 12
Procedure: as §1
(§2) Animals were randomly assigned to treatment groups (n=9 per group). Total treatment time was 4 weeks for all animals. […]
Collagen volume fraction of each section was determined using a computer image analyzing system (Leica Q-Win). Interstitial collagen density of heart sections was evaluated in the left ventricle (LV) subepicardial myocardium regions. Ten fields from each region (magnification ×20) were randomly selected for analyses and the area stained was calculated as percentage of the total area within a field.
Perivascular collagen was expressed as ratio of the area of the collagen surrounding the vessel divided to the area of the coronary arteries media in order to correct for differences in vessel size (magnification ×20 or ×40). We calculated an average value for interstitial and perivascular fibrosis or each animal. […]

[4] = test system: spontaneous hypertensive heart failure (SHHF) rats; test: Transthoracic echocardiography in SHHF rats; assay type: in vivo, rat; settings: treatment end versus treatment start, FIG. 4
Procedure: as §1, §2
At the start and end of the treatment, transthoracic echocardiography was performed under isoflurane anesthesia in part of the rats (5-7 per group) using the SONOS 5500 echocardiographic system equipped with a 15-MHz linear-array transducer (Philips Medical Systems Corp., Netherlands). […] The 2-dimensional parasternal long- and short-axis view of the left ventricle and the parasternal short axis M-mode tracings were recorded.
Measurements and calculations performed are the following: percent LV fractional shortening (FS) was calculated as follows: […], where LVIDd and LVIDs are end-diastolic and end-systolic left ventricle internal dimensions, respectively. […]

[5] = test system: collagens I and III and BNP mRNA; test: Left ventricular gene expression levels of collagens I and III and BNP (real-time PCR) in SHHF rats; assay type: in vivo; settings: SHHF rat left ventricle, 4 weeks treatment; FIG. 13
Procedure: Left ventricular gene expression levels of collagens I and III and BNP were determined as follows. mRNA expression analyses were performed as follows:
Heart samples (i.e. basal side of the hearts) were shock frozen in liquid nitrogen for RNA. Total RNA from the LV was isolated using the Ultraspec II kit (Bioteckx), according to the instructions of the manufacturer. After integrity checking and determining RNA concentrations with the nanodrop procedure, the RNA concentrations were adjusted to 100 ng/μl For first strand cDNA synthesis, 100 ng heat denatured RNA and 200 pmol random hexamer primers (Pharmacia, Uppsala Sweden) were transferred to a Ready-To-Go first strand bead (Pharmacia, Uppsala Sweden) tube and the volume adjusted to 33 μl.
The reaction (1 hour at 37° C.) was stopped by heat inactivating (2 minutes at 94° C.) the transcriptase and samples were cooled to 4° C. For conducting the real-time PCR, […] of the cDNA templates (100× diluted) were added to SYBR green master mix (Eurogentec) and primers (15 μM final concentration each) yielding a total volume of […], following the instructions of the Eurogentec.
PCR-primers (Sigma Genosys) were selected based on published primers/cDNA sequences and had the following sequences (5′→3′): […]
yielding products with fragment lengths of 253, 147 and 86 base pairs for PGK 1 (phosphoglycerate kinase 1), BNP (brain natriuretic peptide) and collagens I and -III respectively.
Samples were denatured and incubated for 40 cycles at 60° C. (120 seconds; annealing and synthesis) and 95° C. (15 seconds), during which fluorescence was continuously monitored (Biorad thermocycler).
Based on the linear part of the curves, initial gene concentrations were derived by comparing signals with standard curves. Validity of the procedure was checked by constructing melting curves for every sample.
Calculated gene expression levels were standardized for the house keeping gene PGK1 and were normalized versus RNA obtained from untreated control animals. Data are therefore expressed as arbitrary units (means±SEM).

SMILES: C[C@]12C[C@H](O)[C@H]3[C@@H](CCC4=CC(=O)CC[C@@]43C)[C@@H]1CC[C@@H]2C(=O)CO [corticosterone]
- corticosterone concentration in rat heart tissue [1]: higher concentration
- cardiac filling rate ([2]; 6 or 60 micrograms/day IPC or IV, 4 weeks): improved
- left ventricular end diastolic pressure ([2]; 6 or 60 micrograms/day IPC or IV, 4 weeks, FIG. 8): improved; also recorded: positively affects
- left ventricular contractility ([2]; 6 or 60 micrograms/day IPC or IV, 4 weeks, FIG. 10): improved; also recorded: positively affects
- left ventricular relaxation ([2]; 6 or 60 micrograms/day IPC or IV, 4 weeks, FIG. 11): positively affects
- heart rate ([2]; right carotid artery, 4 weeks treatment, FIG. 5): no differences between treatments; also recorded: not affecting
- mean arterial pressure (MAP) / blood pressure ([2]; right carotid artery, 4 weeks treatment, FIG. 6): no differences between treatments; also recorded: not affecting
- left ventricular epicardial collagen area [3]: improved; also recorded: positively affects
- echocardiographic examinations (left ventricular dimensions or performance parameters) [4]: no differences between treatments
- mRNA expression of B-type natriuretic peptide (BNP) [5]: reduces
- mRNA expression of Type I collagen [5]: reduces
- mRNA expression of Type III collagen [5]: reduces
